Consider two compounds from patent US20210177812A1, “METHODS OF SUPPRESSING MYELOID-DERIVED SUPPRESSOR CELLS IN PATIENTS” (MediciNova, Inc., priority 2018, published 2021).

“Also recorded” adds a separate entry of the source. Where two headings read alike, the source gives them in different places.

Data set [1] deals with MCP-1. The data set can be described thus: Serum cytokine analysis at day 19 of treated GL261 mice. Conditions: day 19, 3 animals per group. The class given is in vivo, mouse. Here is the method:
(§1) Ibudilast was tested in vivo using the mouse model of glioma GL261. Cells were implanted on day 0 and then a 5-day engrafiment period was used to ensure that the treatment being tested was performing by inhibiting tumor growth and not engraftment. After 5 days the mice were intraperitoneally injected daily with ibudilast at 50 mg/kg in a vehicle consisting of PEG 400 and (2-hydroxypropyl)-p-cyclodextrin to enhance solubility with low toxicity or alternatively mice were treated with AV1013. At day 19 post injection, 3 mice from each group (ibudilast, AV1013 or vehicle) were sacrificed for flow cytometry analysis of MDSCs, T-cells, and NK cells in the tumor, blood, spleen, and bone marrow.

Data set [2] concerns MDSCs. The data set can be described thus: T-cell proliferation in the presence of ibudilast-treated MDSCs from GL261/bone marrow co-culture. The class given is cell-based, mouse. Conditions: CFSE-labeled CD3/28-activated splenic T-cells, 3 days with MDSCs; n=6 mice, 2 experiments, P=0.001. Here is the method:
(§2) MDSCs were prepared through a co-culture process illustrated in FIG. 1. Glioma cell line GL261 is cultured together with freshly isolated bone marrow for 4 days. During this 4-day process the glioma cell line initiates subsets of the naïve monocytes within the bone marrow to become both monocytic MDSCs (M-MDSCs) and granulocytic MDSCs (G-MDSCs) distinguished via flow cytometry using CD11b, Ly6C, and GR1. The GR1+ population was harvested at day 4 via magnetic bead separation. Once isolated the MDSCs were combined with freshly isolated splenic T-cells which were labeled with CFSE and activated using CD3/28 activation beads. The T-cell proliferation was then determined 3 days after being combined with MDSCs by measuring the fluorescence intensity of each CD3 T-cell after 3 days of being cultured with MDSCs (FIG. 2).

Data set [3] concerns mouse model of glioma GL261. Description: Flow cytometry of MDSCs and T-cells in tumor, blood, spleen and bone marrow, mouse model of glioma GL261. The data set is classed as in vivo. The conditions noted are these: day 19; for monocytic MDSCs (M-MDSCs) in the tumor: ibudilast dosed 50 mg/kg i.p. daily from day 5 (AV1013 dose not given), vs vehicle. How it is done:
as §1
In general terms: In flow cytometry, cells or beads pass a laser one at a time.

The subject of data set [4] is mouse model of glioma GL261. The data set can be described thus: Kaplan Meier survival analysis, mouse model of glioma GL261. The class given is in vivo. Conditions: n=10 per group; vehicle median 19 days; Log Rank p=0.016. Here is the method:
as §1
The median survival times for vehicle-treated mice (n=10) was 19 days whereas ibudilast-treated mice (n=10) were undetermined at this point (Log Rank p=0.016, […]) (FIG. 14).

The conditions of data set [5]: in vivo, cited from earlier work.
In data set [6] the test system is MIF/CD74 signaling pathway. The data set can be described thus: mRNA expression of CD45+ cells isolated from vehicle- and ibudilast-treated tumors. Conditions: n=3 per group. The class given is in vivo, mouse. Here is the method:
as §1
Further analysis was conducted on the mRNA expression of CD45+ cells isolated from vehicle- and ibudilast-treated tumors.

In data set [7] the test system is M-MDSCs. Description: MDSC generation in co-cultures with MIF inhibitors quantified by flow cytometry. The data set is classed as cell-based, mouse. The conditions noted are these: GL261/bone marrow co-culture. How it is done: as §2
For data set [8], the system named is GL261. The data set can be described thus: In vitro treatment of co-culture for 24 h, MCP-1 (CCL2) secretion. Conditions: co-culture treated 24 h in vitro. The data set is classed as cell-based, mouse.

As to `CC(C)C(=O)c1c(C(C)C)nn2ccccc12` [ibudilast, 3-isobutyryl-2-isopropylpyrazolo(1,5-a)pyridine], the “serum MCP-1 level” value in data set [1] is on record as “reduction”. The “suppressive abilities of MDSCs on T-cell proliferation” value in data set [2] is given as “effectively reduced the suppressive abilities of MDSCs”. In addition, in data set [3] (50 mg/kg i.p. daily, FIG. 7), the “CD8 T-cells” value was “decreased”. Moreover, the “CD4 T-cells” value in data set [3] (50 mg/kg i.p. daily, FIG. 8) was “increased”. Besides, the “monocytic MDSCs (M-MDSCs) in the blood” value in data set [3] (blood, 50 mg/kg i.p. daily from day 5, 50 mg/kg) was “not altered; also recorded: not M-MDSCs associated with blood, spleen or bone marrow”. Further, the “monocytic MDSCs (M-MDSCs) in the marrow” value in data set [3] (bone marrow, 50 mg/kg i.p. daily from day 5, 50 mg/kg) was “not altered; also recorded: not M-MDSCs associated with blood, spleen or bone marrow”. The “monocytic MDSCs (M-MDSCs) in the spleen” value in data set [3] (spleen, 50 mg/kg i.p. daily from day 5, 50 mg/kg) is “not altered; also recorded: not M-MDSCs associated with blood, spleen or bone marrow”. Besides, in data set [3] (tumor vs blood, marrow, spleen, 50 mg/kg i.p. daily), the “immune suppressive T-regulatory cells” value was “reduced only in the tumors”. Further, the “monocytic MDSCs (M-MDSCs) in the tumor” value in data set [3] (50 mg/kg) is recorded as “reduced; also recorded: reduces M-MDSCs associated with tumor”. Besides, the survival versus vehicle entry in data set [4] was “Significant survival advantages”. Besides, in data set [5], the “CNS distribution / penetration” value is listed as “good CNS penetration”. Besides, the “CNS distribution / penetration” value in data set [5] (listed as Ibudilast) is given as “distributes well to the CNS”. For the same compound, in data set [6], the “CCR2 mRNA expression” value is “significantly reduced”, the “CD74 mRNA expression” value is reported as “significantly reduced”, the “MCP-1 (CCL2) mRNA expression” value is “significantly reduced” and the “MIF mRNA expression” value is “not reduced”. Also, the “myeloid genes mRNA expression” value in data set [6] was “Overall reductions”. In data set [7], the M-MDSC generation entry was “ability to reduce M-MDSC generation”. Moreover, the “secretion of MCP-1 (CCL2)” value in data set [8] is listed as “reduced GLP261 secretion MCP-1 (CCL2) in a dose-dependent manner; also recorded: reduced GL261 secretion of MCP-1(ccl2) in a dose dependent manner”.

In the case of `CC(N)C(=O)c1c(C(C)C)nn2ccccc12` (centres unmarked) [AV1013], the “monocytic MDSCs (M-MDSCs) in the tumor” value in data set [3] is recorded as “no significant suppression”.
